Where a name gives a salt, the structure may show the parent alone.
Key:
[1] = molecular target: T1, ornithine decarboxylase (ODC) (Rattus norvegicus, UniProt P09057); test: Inhibition of ornithine decarboxylase (method of Seely and Pegg, ODC from rat liver); format: biochemical
T1 construct: from tissue; host or cells: rat liver
T1 sequence (P09057 1-461): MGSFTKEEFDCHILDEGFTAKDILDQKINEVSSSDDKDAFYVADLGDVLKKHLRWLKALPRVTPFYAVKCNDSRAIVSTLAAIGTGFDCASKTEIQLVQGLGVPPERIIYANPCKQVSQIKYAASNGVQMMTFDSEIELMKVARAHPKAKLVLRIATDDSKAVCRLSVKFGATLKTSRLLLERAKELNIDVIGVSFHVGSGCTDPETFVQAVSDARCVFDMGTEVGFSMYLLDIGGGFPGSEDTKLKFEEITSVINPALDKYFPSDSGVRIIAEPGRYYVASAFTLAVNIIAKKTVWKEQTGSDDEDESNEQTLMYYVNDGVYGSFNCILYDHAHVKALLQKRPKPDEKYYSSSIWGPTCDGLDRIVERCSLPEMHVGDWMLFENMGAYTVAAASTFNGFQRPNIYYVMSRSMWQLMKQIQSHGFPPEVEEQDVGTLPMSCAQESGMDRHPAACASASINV
Experimental: White-Tabor (editors): Methods in Enzymology, Volume 94: Polyamines, Academic Press, New York 1983. If ODC from rat liver is used in this test (isolation: Hayashi, S.-I. and Kameji, T., same volume, pages 154-158), IC50 values in the micromolar region, down to about 0.01 μM, preferably between about 0.01 and 10 μM, for example between about 0.02 and about 7.2 μM, are obtained for the compounds of the formula I.IC50 is the concentration of the inhibitor at which the ODC activity is 50% of that of a control without the inhibitor.
(§1) On measurement of the IC50 for inhibition of ornithine decarboxylase (by the abovementioned method of Seely and Pegg with ODC from rat liver (obtained by the method of Hayashi and Kameji, see above)) and of the IC50 for inhibition of proliferation of T24 bladder carcinoma cells as described above, the following IC50 values can be found with the particular compounds mentioned from the examples: […]

[2] = test system: human T24 bladder carcinoma cells; test: Inhibition of proliferation of T24 bladder carcinoma cells (methylene blue staining, 5 days); format: cell-based; conditions: T-24, 120 h, 5 days incubation, read-out: Inhibition of T24 cell growth IC50
Experimental: The carcinoma cells (1000-1500) are transinoculated into 96-depression microlitre plates and incubated overnight under the conditions mentioned. The test substance is added in serial dilutions on day 1. The plates are incubated under the conditions mentioned for 5 days. During this period of time, the control cultures pass through at least 4 cell divisions. After the incubation, the cells are fixed with 3.3% (weight/volume=w/v) aqueous glutaraldehyde solution, washed with water and dyed with 0.05% (w/v) aqueous methylene blue solution. After washing, the dye is eluted with 3% (w/v) aqueous hydrochloric acid. Thereafter, the optical density (OD) per depression, which is directly proportional to the number of cells, is measured with a photometer (Titertek multiskan) at 665 nm. The IC50 values are calculated with a computer system using the formula [formula]
The IC50 values are defined as that concentration of active ingredient at which the number of cells per depression at the end of the incubation time is only 50% of the number of cells in the control cultures.
as §1

| IC50 [1] | IC50 [2] | SMILES |
| --- | --- | --- |
| 83 nM |  | NOC[C@H]1C[C@@H](N)C1 [Example 6, cis-3-Aminooxymethyl-cyclobutylamine dihydrochlofide] |
| 20 nM | 4150 nM | NOCC1CC(N)C1 (stereo not shown) [Example 8, 3-Aminooxymethyl-cyclobutylamine dihydrochloride] |
| 53 nM |  | NCC1CC(ON)C1 (stereo not shown) [Example 9, 3-Aminooxy-cyclobutylmethylamine dihydrochlofide] |
| 220 nM | 7500 nM | NO[C@H]1CC[C@H](N)CC1 [Example 1, trans-4-Aminooxy-cyclohexylamine dihydrochloride] |
| 470 nM |  | NC[C@@H]1C[C@@H]1CON (relative stereo) [Example 10, cis-2-Aminooxymethyl-cyclopropylmethylamine dihydrochloride] |
|  | 11000 nM | NO[C@H]1CCC[C@H](N)C1 (relative stereo) [Example 3, trans-3-Aminooxy-cyclohexylamine dihydrochloride] |
| 23 nM | 4900 nM | NOC[C@H]1C[C@H](N)C1 [Example 7, trans-3-Aminooxymethyl-cyclobutylamine dihydrochloride] |

— patent US5516806A, “Ornithine decarboxylase inhibiting cyclic aminooxy compounds” (Ciba-Geigy Corporation, priority 1993, dated 1996)
